# How the values were obtained:
# UGT2B17 = biological target: T1, UGT2B17 (Homo sapiens, UniProt O75795); test: Inhibition of recombinant UGT-catalyzed 4-MU glucuronidation; assay type: biochemical; conditions: pH 7.4, probe 4-methylumbelliferone (4-MU), 2000 μM, 100 μM compound, 4-MU probe substrate, negative = activation
# T1 construct: purchased BD Gentest Corp. (Woburn, MA, USA); host or cells: baculovirus-infected insect cells
# T1 sequence (O75795 24-530): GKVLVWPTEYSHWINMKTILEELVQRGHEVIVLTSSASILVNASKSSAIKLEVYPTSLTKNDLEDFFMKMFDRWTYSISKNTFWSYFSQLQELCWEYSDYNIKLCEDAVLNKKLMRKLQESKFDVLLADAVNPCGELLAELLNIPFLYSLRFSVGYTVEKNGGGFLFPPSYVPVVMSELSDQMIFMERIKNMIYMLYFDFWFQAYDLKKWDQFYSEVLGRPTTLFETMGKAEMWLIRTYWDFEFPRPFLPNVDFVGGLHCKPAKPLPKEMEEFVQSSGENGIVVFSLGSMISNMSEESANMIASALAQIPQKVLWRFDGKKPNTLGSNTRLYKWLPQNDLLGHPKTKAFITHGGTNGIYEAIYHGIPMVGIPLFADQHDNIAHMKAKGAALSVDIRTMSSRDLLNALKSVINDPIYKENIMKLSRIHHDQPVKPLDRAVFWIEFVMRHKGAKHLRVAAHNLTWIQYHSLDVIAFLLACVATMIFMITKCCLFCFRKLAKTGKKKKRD
# Method: (§1) Sigma-Aldrich (St Louis, MO, USA) provided the following constituents in the incubation mixture: 4-methylumbelliferone (4-MU), 4-methylumbelliferone-β-D-glucuronide (4-MUG), Tris-HCl, 7-hydroxycoumarin, and uridine-diphosphoglucuronic acid (UDPGA) (trisodium salt). All other compounds were of high-performance liquid chromatography (HPLC) grade or of the highest grade commercially available. For enzyme sources, recombinant UGT isoforms expressed in baculovirus-infected insect cells were purchased from BD Gentest Corp. (Woburn, MA, USA), including UGT1A1, 1A3, 1A6, 1A7, 1A8, 1A9, 1A10, 2B4, 2B7, 2B15, and 2B17.
# (§2) 4-MU, a nonspecific probe substrate for all the UGT isoforms, was employed to investigate the inhibition of MEF and NIR towards the activity of UGT isoforms. The incubation and analytical methods have been previously described. […] MEF and NIR were dissolved in the DMSO to make a stock solution of 20 mM, and various concentrations of working solutions were prepared through dilution with DMSO. 4-MU was used as a non-selective substrate of UGTs. There was a 5-min pre-incubation step at 37 °C before the reaction was initiated by the addition of UDPGA. 4-MU and inhibitors were previously dissolved in DMSO, and the total concentration of DMSO was 1%. The reactions were continued at 37 °C for 120 min for UGT1A1, UGT1A3, UGT1A10, UGT2B4, UGT2B7, UGT2B15 and UGT2B17, 30 min for UGT1A6, UGT1A7, UGT1A8, and UGT1A9, respectively. Reactions were terminated by the addition of 100 μL acetonitrile with 7-hydroxycoumarin (100 μM) as internal standard. The incubation mixtures were then centrifuged at 12,000 r/min for 10 min. 2 μL supernatant was injected into the UPLC system for analysis. An ACQUITY UPLC System (Waters, Milford, MA, USA) equipped with UV detector was used to analyze the samples, and the separation of all the compounds were carried out using a ACQUITY UPLC® BEH C18 (2.1 × 100 mm, 1.7 μm Waters) at a flow rate of 0.2 mL/min and UV detector at 316 nm. The mobile phase was consisted of ultrapure water containing 0.5% formic acid (A) and acetonitrile (B). The following gradient condition was used: 0–3.5 min, 10–65% B; 3.5–4.0 min, 65% B; 4.0–9.0 min, 10% B. To calculate the standard curve 0.1–100 μM of 4-MUG was used through drawing the peak area ration of 4-MUG/internal standard towards the concentration range of 4-MUG. The curve was linear over this concentration range, with an r^2 value > 0.99.
# (§3) The inhibition type and Kinetics were determined for the inhibition of NTR towards UGT1A3, UGT1A7 and UGT1A9. The glucuronidation velocity of 4-MU was determined at multiple concentrations of 4-MU and NTR. Dixon and Lineweaver–Burk plots were employed to determine the inhibition type, and the second plot of the slopes from the Lineweaver–Burk plot versus the compound concentrations was utilized to calculate the Ki value. The determination of IC50 was calculated using Probit analysis in SPSS11.5 (SPSS, Chicago, IL, USA). The Student’s t-test was adopted at a significance level of p < 0.05 to determine statistically significant differences among experimental groups.
# UGT2B7 = biological target: T2, UGT2B7 (Homo sapiens, UniProt P16662); test: as above; assay type: biochemical; conditions: pH 7.4, probe 4-methylumbelliferone (4-MU), 350 μM, 100 μM compound, 4-MU probe substrate, negative = activation
# T2 construct: purchased BD Gentest Corp. (Woburn, MA, USA); host or cells: baculovirus-infected insect cells
# T2 sequence (P16662 24-529): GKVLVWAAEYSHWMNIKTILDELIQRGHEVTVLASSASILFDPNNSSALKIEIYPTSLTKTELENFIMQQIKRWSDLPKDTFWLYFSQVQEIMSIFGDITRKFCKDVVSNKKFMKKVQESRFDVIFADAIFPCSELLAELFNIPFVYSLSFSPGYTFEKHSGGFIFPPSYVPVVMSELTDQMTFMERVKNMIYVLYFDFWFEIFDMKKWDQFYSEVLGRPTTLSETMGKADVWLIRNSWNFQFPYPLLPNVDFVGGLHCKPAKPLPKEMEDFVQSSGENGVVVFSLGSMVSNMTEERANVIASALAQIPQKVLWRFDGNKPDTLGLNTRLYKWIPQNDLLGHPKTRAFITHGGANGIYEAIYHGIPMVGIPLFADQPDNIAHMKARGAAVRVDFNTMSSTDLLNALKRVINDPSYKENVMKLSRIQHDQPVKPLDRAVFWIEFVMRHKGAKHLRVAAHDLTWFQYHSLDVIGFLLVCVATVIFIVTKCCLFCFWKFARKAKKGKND
# Method: as §1, §2, §3
compound,measurement,setting,value
"O=c1c2cc(O)c(O)cc2oc2cc(O)c([C@@H]3O[C@H](CO)[C@@H](O)[C@H](O)[C@H]3O)c(O)c12 [MGF, 1,3,6,7-tetrahydroxyxanthone-C-2-β-D-glucoside]","inhibition at 120 min, 100 µM",UGT2B17,-106%
same,"inhibition at 120 min, 100 µM",UGT2B7,-11.2%
"O=c1c2cc(O)c(O)cc2oc2cc(O)cc(O)c12 [NTR, 1,3,6,7-tetrahydroxyxanthone]","inhibition at 120 min, 100 µM",UGT2B17,48.6%
same,"inhibition at 120 min, 100 µM",UGT2B7,31.8%
